Measurements published in paper PMC8653689, “Phenanthrotriazine Derivatives Containing Arylidine Hydrazone Moieties as Novel Potential c-Met Inhibitors with Anticancer Effect” (Iranian Journal of Pharmaceutical Research : IJPR, 2021).

Assays:
[1] = tested on: DU145 prostate cancer cells; parameters: method as in PMID 28431881; conditions: ref [30]; read-out: Antiproliferative activity against DU145 prostate cancer cells IC50; cited from earlier work
A498 renal cancer cells = tested on: A498 renal cancer cells; parameters: method as in PMID 30721822, PMID 28431881; conditions: at 10 μM; ref [4], [30]; cited from earlier work
[2] = tested on: MGC-803 gastric cancer cells; parameters: method as in PMID 28763643, PMID 24393539; conditions: ref [13], [31]; read-out: Antiproliferative activity against MGC-803 gastric cancer cells IC50; cited from earlier work
MCF7 breast cancer cells = tested on: MCF7 breast cancer cells; parameters: method as in PMID 28763643, PMID 24393539; conditions: ref [13], [31]; read-out: Cytotoxic effect against MCF7 breast cancer cells IC50; cited from earlier work
[3] = tested on: MDA-MB435s melanoma cells; parameters: method as in PMID 25470024; conditions: ref [32], [33]; read-out: Cytotoxic effect against MDA-MB435s melanoma cells IC50; cited from earlier work
[4] = tested on: MDA-MB-231 breast cancer cells; parameters: method as in PMID 25470024; conditions: ref [32], [33]; read-out: Antiproliferative activity against MDA-MB-231 breast cancer cells IC50; cited from earlier work
[5] = Solubility in aqueous media; type: physicochemical
[6] = tested on: HT-29 (human colorectal adenocarcinoma) cells; assay: MTT reduction assay, antiproliferative effect, HT-29; type: cell-based; conditions: Homo sapiens, HT-29, 72 h, read-out: HT-29 IC50
Description: (§1) Fetal bovine serum (FBS), phosphate-buffered saline (PBS), RPMI-1640, and trypsin were obtained from Biosera (Ringmer, UK). Penicillin/streptomycin and MTT (3-(4,5-dimethylthiazol-2-yl)-2,5-diphenyltetrazolium bromide) were from Sigma-Aldrich (Saint Louis, MO, USA) and Invitrogen (San Diego, CA, USA), respectively. Dimethyl sulfoxide and doxorubicin were purchased from Merck (Darmstadt, Germany) and EBEWE Pharma (Unterach, Austria), respectively. The cells were acquired from Iranian Biological Resource Center, Tehran, Iran (HT-29 (human colorectal adenocarcinoma), MCF-7 (human breast adenocarcinoma) and Vero (African green monkey kidney) cells) or National Cell Bank of Iran, Pasteur Institute, Tehran, Iran (MOLT-4 (lymphoblastic leukemia) cells).
(§2) MTT reduction assay was employed to assess the viability of cancer cells after being treated with synthesized derivatives as previously described ([34]). The cells were plated in flat-bottom 96-well microplates, at densities of 3 × 10^4 cells/mL (100 μL in each well) and then incubated overnight at 37 °C. Three to four different concentrations of synthesized derivatives (in the range of 1 to 100 μM) were placed in triplicate wells and the plates were incubated for 72 h at 37 °C. […] At the end of the incubation time, 80 μL of the media in each well was replaced with the same amount of growth medium without phenol red containing 0.5 mg/mL of MTT. Cells were further incubated at 37 °C for 4 h and then 80 μL of the solution of each well was removed. The addition of DMSO (200μL) to each well solubilized the formazan crystals formed inside the viable cells after 1-hour incubation followed by 30-minute shaking. The optical absorbance of the final solution was determined at 570 nm using a Bio-Tek multimode plate reader (Synergy HTX). The cell viability was calculated compared to untreated control cells by comparison of absorbance measurements. CurveExpert software (version 1.34 for Windows) was used to determine the IC50 value for each compound. To confirm the results, every experiment was repeated 3 to 5 times.

[7] = tested on: MCF-7 (human breast adenocarcinoma) cells; assay: MTT reduction assay, antiproliferative effect, MCF-7; type: cell-based; conditions: Homo sapiens, MCF7, 72 h, read-out: MCF-7 IC50, MTT, 72 h incubation
Description: as §1, §2

[8] = tested on: MOLT-4 (lymphoblastic leukemia) cells; assay: MTT reduction assay, antiproliferative effect, MOLT-4; type: cell-based, human; conditions: Homo sapiens, MOLT-4, 72 h, read-out: MOLT-4 IC50
Description: as §1, §2

[9] = tested on: Vero (African green monkey kidney) cells; assay: MTT reduction assay, Vero normal cells; type: cell-based; conditions: Chlorocebus sabaeus, Vero, 72 h, read-out: Vero IC50
Description: as §1, §2

MCF-7 cells [10] = assay: Cell cycle analysis, propidium iodide/RNase flow cytometric assay; type: cell-based, human; conditions: 48 h
Method: Alterations of the cell cycle were determined by the propidium iodide (PI)-RNase flow cytometric method ([35]). MCF-7 cells were used to determine the percentage of cells in each phase of the cell cycle. In 6-well plates, 2 × 10^5 cells were seeded in each well and incubated at 37 °C for 48 h. Afterward, they were treated for 48 h with derivatives 9g, 9j, 9k and 9l at 10 and 25 μM. The cells were then collected after trypsinization, washed twice with PBS, and fixed by 5 mL ethanol 70% for at least 24 h at -20 °C. After fixation, MCF-7 cells were washed with PBS two times and stained with PI 20 µg/mL and RNase 200 µg/mL for 30 min in the dark at room temperature. A FACS Calibur ﬂow cytometer (BD Biosciences) was used for the assays and 20,000 events were analyzed. The number of cells distributed in sub-G1, G0/G1, S, and G2/M were determined by CellQuest software (BD, USA).
Figure 2 Representative cell cycle histograms of MCF-7 cells treated with synthesized derivatives. Analysis of the percentage of cells in different phases of cell cycle was performed using propidium iodide (PI)-RNase flow cytometric assay. MCF-7 cells were seeded in 6-well microplates and treated with synthesized derivatives for 48 h. The cells were then collected and fixed in 70% ethanol overnight at -20 °C. In the end, the cells were stained with DNA staining solution (PI 20 µg/mL and RNase 200 µg/mL) for 30 min and 20,000 events were analyzed by a FACS Calibur ﬂow cytometer (BD Biosciences). Representative histograms of cells treated with compounds 9g, 9j, 9k and 9l are shown

MCF-7 cells [11] = assay: Hoechst 33258 staining, detection of apoptosis; type: cell-based, human; conditions: MCF-7, 72 h treatment, especially at 25 µM
Method: Hoechst 33258 was used as a DNA stain to detect apoptosis in cells. MCF-7 cells were seeded in a 6-well plate at a density of 5 × 10^4 cells/mL (2 mL per well) and incubated for 24 h. The whole medium was removed and different concentrations of test compounds 9g, 9j, 9k, and 9l diluted in 2 mL medium were placed in the different wells and incubated for 72 h. Afterward, the medium was removed again, 1 mL of 4% cold freshly prepared paraformaldehyde (PFA) was added, and cells were incubated for 20 min at room temperature. The cells were then washed 2 times with 1 ml PBS and incubated with 1 mL Hoechst 33258 2.5 µg/mL for 30 min in the dark at room temperature ([36], [37]). In the end, the cells were washed with 1 mL PBS and imaged with a fluorescence microscope.
Figure 3 Detection of apoptosis in MCF-7 cells by Hoechst staining. Hoechst 33258 was used as a DNA stain to detect apoptosis in MCF-7 cells treated with synthesized compounds. The cells were seeded in a 6-well plates and treated with different concentrations of test compounds 9g, 9j, 9k and 9l for 72 h. After removing the whole medium, 4% cold freshly prepared paraformaldehyde (PFA) was added for 20 min at room temperature, the cells were then washed twice with PBS, and incubated with Hoechst 33258 2.5 µg/mL for 30 min at room temperature in the dark. Finally, the cells were washed with PBS again and the plates were imaged with a fluorescence microscope

SMILES: O=C1C(=O)c2ccccc2-c2ccccc21 [Compound 1]
- IC50 [1]: 1.5 µM

SMILES: O=C1NC(=O)/C(=C/c2ccc(-c3nc4c5ccccc5c5ccccc5c4[nH]3)cc2)S1 [Compound 2]
- Growth inhibition in A498 renal cancer cells (A498 renal cancer cells): 93%

SMILES: Sc1nnc2c3ccccc3c3ccccc3c2n1 [Compound 3]
- melting point: 122 to 124 °C
- IC50 [2]: 7.6 µM

SMILES: O=[N+]([O-])c1cccc(/C=N/Nc2nnc3c(n2)-c2cccc4cccc-3c24)c1 [Compound 4]
- IC50 (MCF7 breast cancer cells): 61.9 µM

SMILES: CSc1nnc2c3ccccc3c3ccccc3c2n1 [Compound 5]
- IC50 [3]: 120 µM

SMILES: Cc1csc(N/N=C/c2ccccc2)n1 [Compound 6]
- IC50 [4]: 3.9 µM

SMILES: COc1ccc(C=NNc2nnc3c4ccccc4c4ccccc4c3n2)cc1 [Compound 9c, 3-(2-(4-methoxybenzylidene)hydrazinyl)phenanthro[9,10-e][1,2,4]triazine]
- Solubility in aqueous media [5]: very low solubility in aqueous media
- melting point: 288 to 292 °C

SMILES: Oc1ccccc1C=NNc1nnc2c3ccccc3c3ccccc3c2n1 [Compound 9d, 2-((2-(phenanthro[9,10-e][1,2,4]triazin-3-yl)hydrazono)methyl)phenol]
- Solubility in aqueous media [5]: very low solubility in aqueous media
- melting point: 328 to 332 °C

SMILES: C(=NNc1nnc2c3ccccc3c3ccccc3c2n1)c1cccs1 [Compound 9l, 3-(2-(thiophene-2-ylmethylene)hydraz-inyl)phenanthro[9,10-e][1,2,4]triazine]
- IC50 [6]: 12.9 ± 3.5 µM
- IC50 [7]: 6.9 ± 0.9 µM
- IC50 [8]: 6.8 ± 0.7 µM
- IC50 [9]: 6.2 ± 3.1 µM
- Percentage of cells in G0/G1 (MCF-7 cells [10]; MCF-7, 10 µM): 73.76 ± 0.6
- Percentage of cells in G2/M (MCF-7 cells [10]; MCF-7, 10 µM): 18.50 ± 1.7
- Percentage of cells in S (MCF-7 cells [10]; MCF-7, 10 µM): 6.28 ± 1.0
- Percentage of cells in Sub G1 (MCF-7 cells [10]; MCF-7, 10 µM): 1.32 ± 0.3
- Effect on cells in sub-G1 phase (MCF-7 cells [10]; MCF-7, 25 µM): increased the cells in the sub-G1 phase
- Percentage of cells in G0/G1 (MCF-7 cells [10]; MCF-7, 25 µM): 72.07 ± 0.9
- Percentage of cells in G2/M (MCF-7 cells [10]; MCF-7, 25 µM): 19.43 ± 0.8
- Percentage of cells in S (MCF-7 cells [10]; MCF-7, 25 µM): 6.75 ± 0.9
- Percentage of cells in Sub G1 (MCF-7 cells [10]; MCF-7, 25 µM): 1.56 ± 0.3
- Effect on number of cells in G0/G1 (MCF-7 cells [10]; MCF-7, 10 and 25 µM): significantly enhanced the number of cells in the G0/G1
- Apoptosis induction by Hoechst 33258 staining (MCF-7 cells [11]): showed signs of apoptosis
- melting point: 228 to 231 °C
